Test system: MV-4-11 cells
Assay: Gene expression microarray analysis (Affymetrix PrimeView) and GSEA
Assay type: cell-based, human
Set-up: RFU PODN (11730768_x_at) / Fold change /veh PODN (11730768_x_at) / RFU LINC00158 (11744669_a_at) / Fold change /veh LINC00158 (11744669_a_at) / RFU DUSP10 (11751237_a_at) / Fold change /veh DUSP10 (11751237_a_at) / RFU ID3 (11757404_x_at) / Fold change /veh ID3 (11757404_x_at) / RFU PLEKHG5 (11737974_s_at) / Fold change /veh PLEKHG5 (11737974_s_at) / RFU LRRC4B (11730491_at) / Fold change /veh LRRC4B (11730491_at) / RFU GIMAP4 (11747438_a_at) / Fold change /veh GIMAP4 (11747438_a_at) / RFU KRT8 (11758183_x_at) / Fold change /veh KRT8 (11758183_x_at) / RFU CNN1 (11734310_a_at) / Fold change /veh CNN1 (11734310_a_at) / RFU VPS37D (11726825_at) / Fold change /veh VPS37D (11726825_at) / RFU C10orf10 (11716522_x_at) / Fold change /veh C10orf10 (11716522_x_at) / RFU KIR2DL2 /// KIR2DL4 /// KIR2DL5A /// KIR2DL5B /// KIR2DS1 /// KIR2DS2 /// KIR2DS3 /// KIR2DS4 /// KIR3DL3 /// KIR3DL3 /// KIR3DS1 (11738374_at) / Fold change /veh KIR2DL2 /// KIR2DL4 /// KIR2DL5A /// KIR2DL5B /// KIR2DS1 /// KIR2DS2 /// KIR2DS3 /// KIR2DS4 /// KIR3DL3 /// KIR3DL3 /// KIR3DS1 (11738374_at) / RFU C1QL1 (11718748_at) / Fold change /veh C1QL1 (11718748_at) / RFU TMPRSS4 (11747572_a_at) / Fold change /veh TMPRSS4 (11747572_a_at) / RFU HAMP (11756126_x_at) / Fold change /veh HAMP (11756126_x_at) / RFU RNFT2 (11725882_a_at) / Fold change /veh RNFT2 (11725882_a_at) / RFU NR4A2 (11747474_a_at) / Fold change /veh NR4A2 (11747474_a_at) / RFU ABCC12 (11746883_a_at) / Fold change /veh ABCC12 (11746883_a_at) / RFU TMEM136 (11760407_x_at) / Fold change /veh TMEM136 (11760407_x_at) / RFU CLDN22 /// WWC2 (11732394_at) / Fold change /veh CLDN22 /// WWC2 (11732394_at) / RFU HLA-DPB1 (11760878_x_at) / Fold change /veh HLA-DPB1 (11760878_x_at) / RFU SPINT1 (11716480_a_at) / Fold change /veh SPINT1 (11716480_a_at) / RFU GAP43 (11754022_s_at) / Fold change /veh GAP43 (11754022_s_at) / RFU A4GNT (11735810_at) / Fold change /veh A4GNT (11735810_at) / RFU PRB3 (11715151_x_at) / Fold change /veh PRB3 (11715151_x_at) / RFU TUBB4B (11761932_at) / Fold change /veh TUBB4B (11761932_at) / RFU CAPN14 (11732068_a_at) / Fold change /veh CAPN14 (11732068_a_at) / RFU TMCC2 (11721928_a_at) / Fold change /veh TMCC2 (11721928_a_at) / RFU IRGQ (11745062_a_at) / Fold change /veh IRGQ (11745062_a_at) / RFU FAM174B (11720279_a_at) / Fold change /veh FAM174B (11720279_a_at) / RFU TMPRSS4 (11748680_a_at) / Fold change /veh TMPRSS4 (11748680_a_at) / RFU FAM212B (11763350_a_at) / Fold change /veh FAM212B (11763350_a_at) / RFU PLEKHG5 (11743358_a_at) / Fold change /veh PLEKHG5 (11743358_a_at) / RFU ZSCAN30 (11745921_a_at) / Fold change /veh ZSCAN30 (11745921_a_at) / RFU CMKLR1 (11741424_a_at) / Fold change /veh CMKLR1 (11741424_a_at) / RFU LOC101060620 /// MAPK8IP1 (11723275_at) / Fold change /veh LOC101060620 /// MAPK8IP1 (11723275_at) / RFU SPTSSB (11747773_x_at) / Fold change /veh SPTSSB (11747773_x_at) / RFU PRSS12 (11739890_at) / Fold change /veh PRSS12 (11739890_at) / RFU BIN1 (11741810_x_at) / Fold change /veh BIN1 (11741810_x_at) / RFU WNT11 (11732464_a_at) / Fold change /veh WNT11 (11732464_a_at) / RFU C10orf10 (11716521_a_at) / Fold change /veh C10orf10 (11716521_a_at) / RFU C5orf56 (11738089_at) / Fold change /veh C5orf56 (11738089_at) / RFU CYB561 (11721691_x_at) / Fold change /veh CYB561 (11721691_x_at) / RFU ANKRD19P (11752326_a_at) / Fold change /veh ANKRD19P (11752326_a_at) / RFU OR2T12 /// OR2T33 /// OR2T8 (11738714_s_at) / Fold change /veh OR2T12 /// OR2T33 /// OR2T8 (11738714_s_at) / RFU VCAN (11748164_a_at) / Fold change /veh VCAN (11748164_a_at) / RFU JSRP1 (11732532_at) / Fold change /veh JSRP1 (11732532_at) / RFU KRTAP10-11 (11738290_x_at) / Fold change /veh KRTAP10-11 (11738290_x_at) / RFU MYO3A (11730013_a_at) / Fold change /veh MYO3A (11730013_a_at) / RFU EBF3 (11725865_a_at) / Fold change /veh EBF3 (11725865_a_at) / RFU CAMK2N1 (11719241_x_at) / Fold change /veh CAMK2N1 (11719241_x_at) / RFU C5orf56 (11738088_a_at) / Fold change /veh C5orf56 (11738088_a_at) / RFU OLFML3 (11715873_a_at) / Fold change /veh OLFML3 (11715873_a_at) / RFU LOC100653217 /// NTM (11731650_a_at) / Fold change /veh LOC100653217 /// NTM (11731650_a_at) / RFU MAPK11 (11762145_a_at) / Fold change /veh MAPK11 (11762145_a_at) / RFU FIZ1 (11724087_x_at) / Fold change /veh FIZ1 (11724087_x_at) / RFU OASL (11726364_x_at) / Fold change /veh OASL (11726364_x_at) / RFU SOX15 (11748057_x_at) / Fold change /veh SOX15 (11748057_x_at) / RFU CD79A (11719716_a_at) / Fold change /veh CD79A (11719716_a_at) / RFU HIST1H1D (11736915_at) / Fold change /veh HIST1H1D (11736915_at) / RFU CASKIN2 (11723855_a_at) / Fold change /veh CASKIN2 (11723855_a_at) / RFU LOC730098 (11760151_x_at) / Fold change /veh LOC730098 (11760151_x_at) / RFU OR4N2 (11742367_at) / Fold change /veh OR4N2 (11742367_at) / RFU PRRT2 (11749266_a_at) / Fold change /veh PRRT2 (11749266_a_at) / RFU SNX32 (11753110_a_at) / Fold change /veh SNX32 (11753110_a_at) / RFU CDHR5 (11726645_a_at) / Fold change /veh CDHR5 (11726645_a_at) / RFU RCAN1 (11760418_a_at) / Fold change /veh RCAN1 (11760418_a_at) / RFU FAM167A (11723789_a_at) / Fold change /veh FAM167A (11723789_a_at) / RFU FAM26E (11764081_at) / Fold change /veh FAM26E (11764081_at) / RFU ISYNA1 (11749810_s_at) / Fold change /veh ISYNA1 (11749810_s_at) / RFU ACY1 (11761880_at) / Fold change /veh ACY1 (11761880_at) / RFU 11764098_at / Fold change /veh 11764098_at / RFU SAMD14 (11745864_x_at) / Fold change /veh SAMD14 (11745864_x_at) / RFU NPB (11741838_a_at) / Fold change /veh NPB (11741838_a_at) / RFU TMPRSS6 (11731388_a_at) / Fold change /veh TMPRSS6 (11731388_a_at) / RFU KRTAP10-2 (11738614_at) / Fold change /veh KRTAP10-2 (11738614_at) / RFU ARHGAP8 /// PRR5-ARHGAP8 (11727945_x_at) / Fold change /veh ARHGAP8 /// PRR5-ARHGAP8 (11727945_x_at) / RFU KRTAP5-7 /// NADSYN1 (11734609_at) / Fold change /veh KRTAP5-7 /// NADSYN1 (11734609_at) / RFU RASL12 (11751679_a_at) / Fold change /veh RASL12 (11751679_a_at) / RFU CDKN2B (11736163_a_at) / Fold change /veh CDKN2B (11736163_a_at) / RFU PRF1 (11729649_at) / Fold change /veh PRF1 (11729649_at) / RFU, ZNF638 /// ZNF638-IT1 / Fold change vs veh, ZNF638 /// ZNF638-IT1 / RFU, PANK3 / Fold change vs veh, PANK3 / RFU, SH3YL1 / Fold change vs veh, SH3YL1 / RFU, ZEB2 / Fold change vs veh, ZEB2 / RFU, NRIP1 / Fold change vs veh, NRIP1 / RFU, PTTG1IP / Fold change vs veh, PTTG1IP / RFU, CAPN2 / Fold change vs veh, CAPN2 / RFU, MED14 / Fold change vs veh, MED14 / RFU, SNORA58 / Fold change vs veh, SNORA58 / RFU, C1orf63 / Fold change vs veh, C1orf63 / RFU, LRRFIP1 / Fold change vs veh, LRRFIP1 / RFU, NDUFAF7 / Fold change vs veh, NDUFAF7 / RFU, SLC12A2 / Fold change vs veh, SLC12A2 / RFU, IBTK / Fold change vs veh, IBTK / RFU, ESF1 / Fold change vs veh, ESF1 / Fold change vs veh, TMEM50B / RFU, TAOK1 / Fold change vs veh, TAOK1 / RFU, ACBD3 / Fold change vs veh, ACBD3 / RFU, TMA16 / Fold change vs veh, TMA16 / RFU, RWDD3 / Fold change vs veh, RWDD3 / RFU, BCAT1 / Fold change vs veh, BCAT1 / RFU, EDEM3 / Fold change vs veh, EDEM3 / RFU, TMEM33 / Fold change vs veh, TMEM33 / RFU, WDR75 / Fold change vs veh, WDR75 / RFU, AHCTF1 / Fold change vs veh, AHCTF1 / RFU, TFRC / Fold change vs veh, TFRC / RFU, ZDHHC17 / Fold change vs veh, ZDHHC17 / RFU, NOM1 / Fold change vs veh, NOM1 / RFU, ARL8B / Fold change vs veh, ARL8B / RFU, ZBTB11 / Fold change vs veh, ZBTB11 / RFU, TAMM41 / Fold change vs veh, TAMM41 / RFU, KIAA1704 /// LOC100996395 / Fold change vs veh, KIAA1704 /// LOC100996395 / RFU, ING1 / Fold change vs veh, ING1 / RFU, TRMT61B / Fold change vs veh, TRMT61B / RFU, FUBP3 / Fold change vs veh, FUBP3 / RFU, TP53 / Fold change vs veh, TP53 / RFU, TNKS2 / Fold change vs veh, TNKS2 / RFU, ZFP14 / Fold change vs veh, ZFP14 / RFU, ACTR2 / Fold change vs veh, ACTR2 / RFU, PPP3R1 / Fold change vs veh, PPP3R1 / RFU, PIK3R1 / Fold change vs veh, PIK3R1 / RFU, HNRNPA1 / Fold change vs veh, HNRNPA1 / RFU, RNF170 / Fold change vs veh, RNF170 / RFU, ZNF28 / Fold change vs veh, ZNF28 / RFU, RNGTT / Fold change vs veh, RNGTT / RFU, OGT / Fold change vs veh, OGT / RFU, BRD1 / Fold change vs veh, BRD1 / RFU, MARS / Fold change vs veh, MARS / RFU, ZNF655 / Fold change vs veh, ZNF655 / RFU, FAHD1 / Fold change vs veh, FAHD1 / RFU, BDP1 / Fold change vs veh, BDP1 / RFU, LRRCC1 / Fold change vs veh, LRRCC1 / RFU, ARID1A / Fold change vs veh, ARID1A / RFU, ZNF146 / Fold change vs veh, ZNF146 / RFU, ZNF330 / Fold change vs veh, ZNF330 / RFU, GPN3 / Fold change vs veh, GPN3 / RFU, C9orf123 / Fold change vs veh, C9orf123 / RFU, N4BP2L2 / Fold change vs veh, N4BP2L2 / RFU, ARFIP1 / Fold change vs veh, ARFIP1 / RFU, FAM179B / Fold change vs veh, FAM179B / RFU, BCL10 / Fold change vs veh, BCL10 / RFU, UHRF1BP1L / Fold change vs veh, UHRF1BP1L / RFU, BET1 / Fold change vs veh, BET1 / RFU, CNOT2 / Fold change vs veh, CNOT2 / RFU, ZNF268 / Fold change vs veh, ZNF268 / Fold change vs veh, ZNF507 / RFU, DGCR2 / Fold change vs veh, DGCR2 / RFU, WDSUB1 / Fold change vs veh, WDSUB1 / Fold change vs veh, HSP90B1 /// MIR3652 / RFU, ADSS / Fold change vs veh, ADSS / RFU, GK / Fold change vs veh, GK / RFU, ZNF148 / Fold change vs veh, ZNF148 / RFU, TAF9 / Fold change vs veh, TAF9 / RFU, SLC1A5 / Fold change vs veh, SLC1A5 / RFU, SLMO2 / Fold change vs veh, SLMO2 / RFU, ABCC4 / Fold change vs veh, ABCC4 / RFU, LOC101060439 /// RAP1B / Fold change vs veh, LOC101060439 /// RAP1B / RFU, RFX7 / Fold change vs veh, RFX7 / RFU, GTPBP10 / Fold change vs veh, GTPBP10 / RFU, CNEP1R1 / Fold change vs veh, CNEP1R1 / RFU, BIVM-ERCC5 /// ERCC5 / Fold change vs veh, BIVM-ERCC5 /// ERCC5 / RFU, ILF3 / Fold change vs veh, ILF3 / RFU 11762660_at / Fold change /veh 11762660_at / RFU VCAN (11757783_s_at) / Fold change /veh VCAN (11757783_s_at) / RFU DDX43 (11728927_at) / Fold change /veh DDX43 (11728927_at) / RFU KRT8 (11758188_x_at) / Fold change /veh KRT8 (11758188_x_at) / RFU NKD1 (11759106_at) / Fold change /veh NKD1 (11759106_at) / RFU SRD5A1 (11742802_a_at) / Fold change /veh SRD5A1 (11742802_a_at) / RFU TPSAB1 /// TPSB2 (11721975_s_at) / Fold change /veh TPSAB1 /// TPSB2 (11721975_s_at) / RFU GSTM3 (11746129_a_at) / Fold change /veh GSTM3 (11746129_a_at) / RFU IL23R (11737362_x_at) / Fold change /veh IL23R (11737362_x_at) / RFU TMEM51 (11727254_a_at) / Fold change /veh TMEM51 (11727254_a_at) / RFU PIWIL2 (11732686_x_at) / Fold change /veh PIWIL2 (11732686_x_at) / RFU ORM1 (11744905_x_at) / Fold change /veh ORM1 (11744905_x_at) / RFU CCDC152 (11743942_at) / Fold change /veh CCDC152 (11743942_at) / RFU ECM1 (11717891_a_at) / Fold change /veh ECM1 (11717891_a_at) / RFU IL23R (11748794_a_at) / Fold change /veh IL23R (11748794_a_at) / RFU TNFAIP8L3 (11732012_x_at) / Fold change /veh TNFAIP8L3 (11732012_x_at) / RFU MBOAT4 (11741988_at) / Fold change /veh MBOAT4 (11741988_at) / RFU 11764193_at / Fold change /veh 11764193_at / RFU TMEM53 (11763286_at) / Fold change /veh TMEM53 (11763286_at) / RFU MAGEB2 (11727129_at) / Fold change /veh MAGEB2 (11727129_at) / RFU TMEM200A (11744735_a_at) / Fold change /veh TMEM200A (11744735_a_at) / RFU CCDC152 (11751479_a_at) / Fold change /veh CCDC152 (11751479_a_at) / RFU FAM211A (11726209_a_at) / Fold change /veh FAM211A (11726209_a_at) / RFU RGS16 (11746705_a_at) / Fold change /veh RGS16 (11746705_a_at) / RFU VCAN (11755009_s_at) / Fold change /veh VCAN (11755009_s_at) / RFU RHOB (11743442_s_at) / Fold change /veh RHOB (11743442_s_at) / RFU RGS16 (11720943_a_at) / Fold change /veh RGS16 (11720943_a_at) / RFU RGS16 (11720944_at) / Fold change /veh RGS16 (11720944_at) / RFU, VPS4B / Fold change vs veh, VPS4B / RFU, CREB1 / Fold change vs veh, CREB1 / RFU, DNAJC13 / Fold change vs veh, DNAJC13 / RFU, GNAQ / Fold change vs veh, GNAQ / RFU, CDK5R1 / Fold change vs veh, CDK5R1 / RFU, ZRANB3 / Fold change vs veh, ZRANB3 / RFU, CUL4A / Fold change vs veh, CUL4A / RFU, CCNY / Fold change vs veh, CCNY / RFU, UFL1 / Fold change vs veh, UFL1 / RFU, COG3 / Fold change vs veh, COG3 / RFU, DIAPH2 / Fold change vs veh, DIAPH2 / RFU, SKA2 / Fold change vs veh, SKA2 / RFU, AFF3 / Fold change vs veh, AFF3 / RFU, LMF1 / Fold change vs veh, LMF1 / RFU, IPO11 / Fold change vs veh, IPO11 / RFU, DFFB / Fold change vs veh, DFFB / RFU, FOXP1 / Fold change vs veh, FOXP1 / RFU, CARD8 / Fold change vs veh, CARD8 / RFU, STRN3 / Fold change vs veh, STRN3 / RFU, ADK / Fold change vs veh, ADK / RFU, RASSF2 / Fold change vs veh, RASSF2 / RFU, WIPF1 / Fold change vs veh, WIPF1 / RFU, LARP1B / Fold change vs veh, LARP1B / RFU, RASA1 / Fold change vs veh, RASA1 / RFU, RB1 / Fold change vs veh, RB1 / RFU, PPFIA1 / Fold change vs veh, PPFIA1 / RFU, MAT2A / Fold change vs veh, MAT2A / RFU, CCT5 / Fold change vs veh, CCT5 / RFU, WDR92 / Fold change vs veh, WDR92 / RFU, CUX1 / Fold change vs veh, CUX1 / RFU, TTC7A / Fold change vs veh, TTC7A / RFU, TMEM135 / Fold change vs veh, TMEM135 / RFU, DEPTOR / Fold change vs veh, DEPTOR / RFU, CPM / Fold change vs veh, CPM / RFU, DNAJB6 / Fold change vs veh, DNAJB6 / RFU, CACNA2D3 / Fold change vs veh, CACNA2D3 / RFU, DTX4 / Fold change vs veh, DTX4 / RFU, TFCP2 / Fold change vs veh, TFCP2 / RFU, GMCL1 /// GMCL1P1 / Fold change vs veh, GMCL1 /// GMCL1P1 / RFU, AEBP2 / Fold change vs veh, AEBP2 / RFU, SNHG1 /// SNORD22 /// SNORD25 /// SNORD26 /// SNORD27 /// SNORD28 /// SNORD29 /// SNORD31 / Fold change vs veh, SNHG1 /// SNORD22 /// SNORD25 /// SNORD26 /// SNORD27 /// SNORD28 /// SNORD29 /// SNORD31 / Fold change (Aza/veh), C12orf56 (ProbeSet 11735607_a_at) / Fold change (ACY-1035/veh), C12orf56 (ProbeSet 11735607_a_at) / Fold change (Aza/veh), FGFR1OP (ProbeSet 11751329_s_at) / Fold change (ACY-1035/veh), FGFR1OP (ProbeSet 11751329_s_at) / Fold change (Aza/veh), VPS36 (ProbeSet 11739960_a_at) / Fold change (ACY-1035/veh), VPS36 (ProbeSet 11739960_a_at) / RFU SYPL1 (11715823_x_at) / Fold change /veh SYPL1 (11715823_x_at) / RFU IGFBP7 (11715501_s_at) / Fold change /veh IGFBP7 (11715501_s_at) / RFU REEP3 (11722064_at) / Fold change /veh REEP3 (11722064_at) / RFU IGLL1 (11728026_x_at) / Fold change /veh IGLL1 (11728026_x_at): dose or concentration left out as unconfirmed
Settings: MV-4-11 cells, 48 hours

Nc1ncn([C@@H]2O[C@H](CO)[C@@H](O)[C@H]2O)c(=O)n1 [azacitidine]
RFU SNX32 (11753110_a_at): 6.16 RFU

Reference: PMC5218480 (PLoS ONE, 2017)
